Where a name gives a salt, the structure may show the parent alone. Read-outs that look alike come from different tables or passages of the source. Blank lines part the entries; values can stand above or below the molecule they belong to.
Columns and labels:
[1] = target: T1, porcine pancreatic elastase (PPE) (Sus scrofa, UniProt P00772); assay: Inactivation of porcine pancreatic elastase (PPE); type: biochemical
T1 construct: from tissue; host or cells: porcine pancreas (from the name)
Method: Inactivation rates of serine proteases by substituted isocoumarins were measured by the incubation method. An aliquot of inhibitor (25 or 50 μl) in Me2 SO was added to a buffered enzyme solution (0.01-2.3 μM) to initiate the inactivation. Aliquots (50 μl) were withdrawn at various intervals and the residual enzymatic activity was measured. Me2 SO concentration in the reaction mixture was 8-12% (v/v). 0.1 Hepes, 0.01M CaCl2, pH 7.5 buffer was utilized for trypsin and coagulation enzymes. 0.1M Hepes, 0.5M NaCl, pH 7.5 was utilized for other serine proteases. […] Peptide thioesters or peptide nitroanilides with appropriate sequence were used as substrates for various serine proteases. All peptide thioester hydrolysis rates were measured with assay mixtures containing 4,4'-dithiodipyridine (ε324 =19800M^-1 cm^-1 ; Grasetti & Murray, Arch. Biochem. Biophys. 119, pp 41-49 (1967)). Peptide 4-nitroanilide nitroanilide hydrolysis was measured at 410 nm (ε410 =8800M^-1 cm^-1 ; Erlanger et al., Arch. Biochem. Biophys. 95, pp 271-278 (1961)). First order inactivation rate constant (kobs) were obtained from plots of ln (vt /vo) vs time, and the correlation coefficients were greater than 0.98.
^a Inactivation rates were measured at 0.1M Hepes, 0.5 NaCl, pH 7.5,
8-12% Me2 SO and 25° C. by incubation method.
^a Inhibition rates were measured in 0.1M Hepes, 0.05M NaCl, pH 7.5
buffer, 8-9% Me2 SO and at 25° C.
^a Inhibition constants were in 0.1M Hepes, 0.5M NaCl, pH 7.5 buffer,
8-9% Me2 SO and at 25° C.
^a Inhibition rates were measured in 0.1M Hepes, 0.5M NaCl, 2.5%
Me2 SO, pH 7,5 and at 25° C.
^a Inhibition was measured in 0.1M Hepes, 0.5M NaCl, pH 7.5 buffer,
5-10% Me2 SO and at 25° C. Suc--Val--Pro--Phe--NA (0.48 mM)
was used as the substrate for chymotrypsin and cat G.
^a Inhibition rates were measured in 0.1M Hepes, 0.5M NaCl, pH 7.5

[2] = target: T2, human leukocyte elastase (HLE) (Homo sapiens, UniProt P08246); assay: Inactivation of human leukocyte elastase (HLE); type: biochemical; conditions: pH 7.5, 25° C, read-out: kobs/[I]
T2 construct: from tissue; host or cells: human leukocytes (from the name)
T2 sequence (P08246 30-267): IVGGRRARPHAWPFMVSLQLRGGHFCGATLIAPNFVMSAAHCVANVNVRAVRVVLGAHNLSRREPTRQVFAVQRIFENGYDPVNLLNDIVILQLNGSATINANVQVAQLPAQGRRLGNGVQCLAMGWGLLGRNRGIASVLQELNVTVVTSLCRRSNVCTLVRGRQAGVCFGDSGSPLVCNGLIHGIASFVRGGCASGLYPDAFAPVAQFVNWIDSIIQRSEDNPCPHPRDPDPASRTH

cathepsin G = target: T3, cathepsin G (Homo sapiens, UniProt P08311); assay: Inactivation of cathepsin G; type: biochemical; conditions: pH 7.5, 25° C, read-out: kobs/[I]
T3 construct: from tissue; host or cells: human leukocytes
T3 sequence (P08311 21-255): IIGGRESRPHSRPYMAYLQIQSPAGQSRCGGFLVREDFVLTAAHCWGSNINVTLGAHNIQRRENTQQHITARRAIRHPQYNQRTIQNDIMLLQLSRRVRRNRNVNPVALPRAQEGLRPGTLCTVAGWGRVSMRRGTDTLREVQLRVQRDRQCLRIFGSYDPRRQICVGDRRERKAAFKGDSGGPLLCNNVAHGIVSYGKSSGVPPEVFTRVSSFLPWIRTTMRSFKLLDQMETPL

human plasmin = target: T4, human plasmin (Homo sapiens, UniProt P00747); assay: Inactivation rate of human plasmin; type: biochemical; conditions: Table VI; pH 7.5, 25° C; [I] 4 to 330 μM; read-out: kobs/[I]
T4 construct: human plasmin; from tissue; host or cells: human plasma
T4 sequence (P00747 581-810 limits assumed): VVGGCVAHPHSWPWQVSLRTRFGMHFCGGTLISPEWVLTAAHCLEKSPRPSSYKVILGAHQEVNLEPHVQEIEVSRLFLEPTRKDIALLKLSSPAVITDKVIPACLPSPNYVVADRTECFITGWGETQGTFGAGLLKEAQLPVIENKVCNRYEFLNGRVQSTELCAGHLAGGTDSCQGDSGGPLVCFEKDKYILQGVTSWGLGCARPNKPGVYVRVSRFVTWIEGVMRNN
T4 sequence (P00747 97-580 partner limits assumed): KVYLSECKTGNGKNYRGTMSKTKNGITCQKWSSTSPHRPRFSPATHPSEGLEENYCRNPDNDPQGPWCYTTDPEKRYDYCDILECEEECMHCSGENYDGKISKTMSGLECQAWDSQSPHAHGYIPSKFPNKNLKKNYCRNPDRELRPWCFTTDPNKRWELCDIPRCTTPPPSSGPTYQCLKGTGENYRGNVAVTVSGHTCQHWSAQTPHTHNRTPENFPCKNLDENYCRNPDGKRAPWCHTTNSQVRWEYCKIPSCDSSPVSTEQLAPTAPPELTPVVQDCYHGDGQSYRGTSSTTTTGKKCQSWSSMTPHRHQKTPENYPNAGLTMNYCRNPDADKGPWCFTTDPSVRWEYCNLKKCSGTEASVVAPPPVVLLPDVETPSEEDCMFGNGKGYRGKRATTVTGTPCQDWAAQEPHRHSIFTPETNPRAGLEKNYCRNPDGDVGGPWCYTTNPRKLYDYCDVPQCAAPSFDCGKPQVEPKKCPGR

bovine trypsin = target: T5, bovine trypsin (Bos taurus, UniProt P00760); assay: Inactivation rate of bovine trypsin; type: biochemical; conditions: Table I; pH 7.5, 25° C; [I] 1 to 12 μM; read-out: kobs/[I]
T5 sequence (P00760 24-246): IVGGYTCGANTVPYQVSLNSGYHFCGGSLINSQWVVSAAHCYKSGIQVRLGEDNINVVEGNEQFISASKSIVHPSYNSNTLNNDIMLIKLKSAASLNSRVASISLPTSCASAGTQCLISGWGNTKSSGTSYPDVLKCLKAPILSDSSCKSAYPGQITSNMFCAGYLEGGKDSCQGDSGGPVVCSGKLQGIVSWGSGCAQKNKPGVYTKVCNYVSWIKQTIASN
Method: (§1) Inactivation rates of serine proteases by substituted isocoumarins were measured by the incubation method. An aliquot of inhibitor (25 or 50 μl) in Me2 SO was added to a buffered enzyme solution (0.01-2.3 μM) to initiate the inactivation. Aliquots (50 μl) were withdrawn at various intervals and the residual enzymatic activity was measured. Me2 SO concentration in the reaction mixture was 8-12% (v/v). 0.1 Hepes, 0.01M CaCl2, pH 7.5 buffer was utilized for trypsin and coagulation enzymes. 0.1M Hepes, 0.5M NaCl, pH 7.5 was utilized for other serine proteases. The inhibitor concentrations are shown in all the tables. Peptide thioesters or peptide nitroanilides with appropriate sequence were used as substrates for various serine proteases. All peptide thioester hydrolysis rates were measured with assay mixtures containing 4,4'-dithiodipyridine (ε324 =19800M^-1 cm^-1; Grasetti & Murray, Arch. Biochem. Biophys. 119, pp 41-49 (1967)). Peptide 4-nitroanilide nitroanilide hydrolysis was measured at 410 nm (ε410 =8800M^-1 cm^-1; Erlanger et al., Arch. Biochem. Biophys. 95, pp 271-278 (1961)). First order inactivation rate constant (kobs) were obtained from plots of ln (vt /vo) vs time, and the correlation coefficients were greater than 0.98.
(§2) ^a Conditions were as 0.1M Hepes, 0.01M CaCl2, pH 7.5 and 8-12%
(§3) Me2 SO and 25° C. Rate constants were measured by incubation
(§4) method unless otherwise noted. An aliquot of inhibitor was added to an
(§5) enzyme solution and aliquots removed with time and assayed for remaining
(§6) enzymatic activity. Firstorder rate constants, kobs were obtained
(§7) from the plots of ln(vt /vo) versus time.
(§8) ^a Inhibition rates were measured in 0.1M Hepes, 0.01M CaCl2, pH
(§9) 7.5 buffer, 8% Me2 SO and at 25° C.

bovine thrombin = target: T6, bovine thrombin (Bos taurus, UniProt P00735); assay: Inactivation rate of bovine thrombin; type: biochemical; conditions: Table VIII; pH 7.5, 25° C; [I] 1.2-54 μM; read-out: kobs/[I]
T6 construct: bovine thrombin
Method: as §1, §2, §3, §4, §5, §6, §7, §8, §9

human thrombin = target: T7, human thrombin (Homo sapiens, UniProt P00734); assay: Inactivation rate of human thrombin; type: biochemical; conditions: Table VIII; pH 7.5, 25° C; [I] 1.2-54 μM; read-out: kobs/[I]
T7 construct: human thrombin
Method: as §1, §8, §9

human factor Xa = target: T8, human factor Xa (Homo sapiens, UniProt P00742); assay: Inactivation rate of human factor Xa; type: biochemical; conditions: Table VIII; pH 7.5, 25° C; [I] 3.6-44 μM; read-out: kobs/[I]
T8 construct: human factor Xa
T8 sequence (P00742 235-488 limits assumed): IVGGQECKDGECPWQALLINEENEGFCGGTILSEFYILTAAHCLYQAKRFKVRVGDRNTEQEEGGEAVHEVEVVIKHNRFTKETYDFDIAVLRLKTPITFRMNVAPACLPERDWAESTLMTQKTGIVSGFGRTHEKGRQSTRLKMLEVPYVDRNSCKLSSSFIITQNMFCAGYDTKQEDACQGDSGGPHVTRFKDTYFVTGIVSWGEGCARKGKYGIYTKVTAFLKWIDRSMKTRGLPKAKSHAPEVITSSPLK
T8 sequence (P00742 41-179 partner limits assumed): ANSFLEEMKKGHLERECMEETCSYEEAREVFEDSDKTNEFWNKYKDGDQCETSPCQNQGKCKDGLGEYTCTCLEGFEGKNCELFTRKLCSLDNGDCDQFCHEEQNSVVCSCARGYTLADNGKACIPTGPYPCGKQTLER
Method: as §1, §2, §3, §4, §5, §6, §7, §8, §9

rat skin tryptase = target: T9, rat skin tryptase (Rattus norvegicus, UniProt P27435); assay: Inactivation rate of rat skin tryptase; type: biochemical; conditions: pH 7.5, Table IX; pH 7.5, 25° C; [I] 0.42-0.51 μM; read-out: kobs/[I]
T9 construct: from tissue; host or cells: rat skin
T9 sequence (P27435 29-273): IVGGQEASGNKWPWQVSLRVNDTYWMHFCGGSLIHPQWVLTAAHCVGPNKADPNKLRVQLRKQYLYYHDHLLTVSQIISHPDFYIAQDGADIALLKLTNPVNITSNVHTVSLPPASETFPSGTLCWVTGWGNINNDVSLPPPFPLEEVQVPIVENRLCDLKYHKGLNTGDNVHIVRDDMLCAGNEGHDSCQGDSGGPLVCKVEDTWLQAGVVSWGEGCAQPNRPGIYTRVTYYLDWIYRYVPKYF
Method: as §1
^b Inactivation rates were measured at 25 mM phosphate, 0.5M NaCl, 1
mM EDTA, pH 7.5 buffer, 9% Me2 SO and 25° C.
as §8
(§10) 7.5 buffer for human plasmin; 25 mM Phosphate, 0.5M NaCl, 1 mM EDTA, pH
(§11) 7.5 buffer for rat skin tryptase and 0.1M Hepes, 0.5M NaCl, pH 7.5 for
(§12) human lung tryptase, human skin tryptase and rt-PA. All enzymes were
(§13) assayed with ZArg-SBzl (0.07 mM) in the presence of 4,4dithiodipyridine
(§14) (0.33 mM). Reaction mixtures contained 8% Me2 SO and assays were […]

human lung tryptase = assay: Inactivation rate of human lung tryptase; type: biochemical; conditions: Table IX; not time dependent; at 0.34-5.0 μM
Method: as §1
^a Inactivation rates were measured at 0.1M Hepes, 0.5M NaCl, pH 7.5
buffer, 8% Me2 SO and 25° C.
as §8, §10, §11, §12, §13, §14

chymotrypsin = chymotrypsin (Bos taurus, UniProt P00766); assay: Inactivation of chymotrypsin; type: biochemical, bovine; conditions: Table X; pH 7.5, 25° C; [I] 0.9-43 μM; read-out: kobs/[I]
[3] = target: recombinant human tissue plasminogen activator (Homo sapiens, UniProt P00750); assay: Inactivation rate of recombinant human tissue plasminogen activator; type: biochemical; conditions: Table IX; not time dependent; at 0.34-5.0 μM
recombinant human tissue plasminogen activator, sequence (P00750 36-562): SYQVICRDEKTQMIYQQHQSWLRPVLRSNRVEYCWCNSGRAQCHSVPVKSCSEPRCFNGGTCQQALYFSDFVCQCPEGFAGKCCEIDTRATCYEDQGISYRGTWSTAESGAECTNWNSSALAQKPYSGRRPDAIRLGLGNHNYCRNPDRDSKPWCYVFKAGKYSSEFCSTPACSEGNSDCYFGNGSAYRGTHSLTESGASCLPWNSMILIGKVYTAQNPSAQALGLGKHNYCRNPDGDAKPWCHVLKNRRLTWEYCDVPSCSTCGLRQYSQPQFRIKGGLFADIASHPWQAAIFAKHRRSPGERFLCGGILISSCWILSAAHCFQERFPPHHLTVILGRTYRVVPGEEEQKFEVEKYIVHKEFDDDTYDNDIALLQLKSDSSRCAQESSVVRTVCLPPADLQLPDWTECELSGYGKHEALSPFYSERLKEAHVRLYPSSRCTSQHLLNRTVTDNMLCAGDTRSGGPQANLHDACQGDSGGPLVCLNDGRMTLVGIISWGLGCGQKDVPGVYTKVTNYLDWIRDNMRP
Method: as §1
^a Inactivation constants were measured at 0.1M Hepes, 0.5M NaCl (or
as §8, §10, §11, §12, §13, §14

T1 sequence (P00772 27-266): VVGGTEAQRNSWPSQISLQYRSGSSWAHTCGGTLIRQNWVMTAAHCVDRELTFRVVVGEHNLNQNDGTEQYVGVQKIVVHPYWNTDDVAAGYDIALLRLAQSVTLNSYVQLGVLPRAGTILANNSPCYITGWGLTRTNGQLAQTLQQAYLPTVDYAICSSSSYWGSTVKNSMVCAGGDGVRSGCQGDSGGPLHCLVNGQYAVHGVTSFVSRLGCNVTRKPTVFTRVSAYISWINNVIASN

kinact/KI ([1]; Table IV, pH 7.5, 25° C, [I] 0.01 to 0.51 mM, read-out: kobs/[I]): 1610 M⁻¹ s⁻¹
kinact/KI ([2]; Table IV, [I] 0.001 to 0.18 mM): 13500 M⁻¹ s⁻¹
kinact/KI (cathepsin G; Table IV, [I] 0.002 to 0.35 mM): 20 M⁻¹ s⁻¹
kinact/KI (human plasmin): 31 M⁻¹ s⁻¹
kinact/KI (bovine trypsin): 470 M⁻¹ s⁻¹
Structure (SMILES): COc1oc(=O)c2cc(NC(=O)[C@H](C)N)ccc2c1Cl [7-(Alanylamino)-3-Methoxy-4-Chloroisocoumarin Hydrochloride]

kinact/KI (bovine thrombin): 1070 M⁻¹ s⁻¹
kinact/KI (human thrombin): 880 M⁻¹ s⁻¹
kinact/KI (human factor Xa): 1490 M⁻¹ s⁻¹
Structure (SMILES): C[C@H](N)C(=O)N[C@@H](C)C(=O)Nc1ccc2c(Cl)c(OCCSC(=N)N)oc(=O)c2c1 [Ala--Ala--NH-CiTEtOIC, 7-(L-alanyl-L-alanylamino)-4-chloro-3-(2-isothiureidoethoxy)isocoumarin]

percentage of inhibition ([1]; Table X, after 20 min incubation): 12%
kinact/KI ([2]; Table X, [I] 2.1-42 μM): 3100 M⁻¹ s⁻¹
kinact/KI (rat skin tryptase): 135000 M⁻¹ s⁻¹
kinact/KI (cathepsin G; Table X, [I] 33-46 μM): 35 M⁻¹ s⁻¹
kinact/KI (bovine thrombin): 1040 M⁻¹ s⁻¹
kinact/KI (human thrombin): 1090 M⁻¹ s⁻¹
percentage of inhibition (human lung tryptase): 44%
kinact/KI (chymotrypsin): 220 M⁻¹ s⁻¹
percentage of inhibition [3]: 65%
Structure (SMILES): CC(C)(C)OC(=O)N[C@H](Cc1ccccc1)C(=O)Nc1ccc2c(Cl)c(OCCSC(=N)N)oc(=O)c2c1 [Boc-D-Phe--NH-CiTEtOIC, 7-(N-t-butyloxycarbonyl-D-phenylalanylamino)-4-chloro-3-(2-isothiureidoethoxy)isocoumarin]

kinact/KI (bovine thrombin): 1090 M⁻¹ s⁻¹
kinact/KI (human thrombin): 1140 M⁻¹ s⁻¹
kinact/KI (human factor Xa): 1620 M⁻¹ s⁻¹
Structure (SMILES): CC(C)(C)OC(=O)N[C@@H](Cc1ccccc1)C(=O)Nc1ccc2c(Cl)c(OCCSC(=N)N)oc(=O)c2c1 [Boc-L-Phe--NH-CiTEtOIC, 7-(N-t-butyloxycarbonyl-L-phenylalanylamino)-4-chloro-3-(2-isothiureidoethoxy)isocoumarin]

— patent US5324648A, “Substituted isocoumarins as serine protease inhibitors and anti-inflammatory agents” (Georgia Tech Research Corporation, priority 1992, dated 1994)
